In the NIST ThermoML archive (doi:10.1016/j.tca.2014.05.034):

Test: xn = mol fraction of the nth substance listed
Details: 100 kPa, Liquid; for kinematic viscosity: Capillary tube (Ostwald / Ubbelohde) method; for mass density: Pycnometric method

NCCN [ethane-1,2-diamine] + OCCOCCO
Details | kinematic viscosity, 298.15 K [m2/s] | kinematic viscosity, 303.15 K [m2/s] | kinematic viscosity, 308.15 K [m2/s] | kinematic viscosity, 313.15 K [m2/s] | kinematic viscosity, 318.15 K [m2/s] | mass density, 298.15 K [kg/m3] | mass density, 303.15 K [kg/m3] | mass density, 308.15 K [kg/m3] | mass density, 313.15 K [kg/m3] | mass density, 318.15 K [kg/m3]
x1 = 0.085 | 2.94e-05 | 2.32e-05 | 1.85e-05 | 1.54e-05 | 1.3e-05 | 1104.7 | 1101.3 | 1097.7 | 1094.3 | 1091
x1 = 0.164 | 3.37e-05 | 2.62e-05 | 2.07e-05 | 1.71e-05 | 1.43e-05 | 1096.3 | 1092.8 | 1089.4 | 1085.8 | 1082.5
x1 = 0.2376 | 3.68e-05 | 2.84e-05 | 2.22e-05 | 1.82e-05 | 1.51e-05 | 1087.5 | 1083.9 | 1080.3 | 1076.8 | 1073.4
x1 = 0.3062 | 3.81e-05 | 2.92e-05 | 2.27e-05 | 1.85e-05 | 1.53e-05 | 1078.1 | 1074.5 | 1070.8 | 1067.2 | 1063.6
x1 = 0.3705 | 3.7e-05 | 2.82e-05 | 2.19e-05 | 1.78e-05 | 1.47e-05 | 1068.3 | 1064.5 | 1060.8 | 1057.1 | 1053.4
x1 = 0.4308 | 3.36e-05 | 2.57e-05 | 2e-05 | 1.64e-05 | 1.35e-05 | 1057.7 | 1053.8 | 1050.1 | 1046.4 | 1042.8
x1 = 0.4874 | 2.87e-05 | 2.22e-05 | 1.74e-05 | 1.43e-05 | 1.19e-05 | 1046.5 | 1042.7 | 1039.1 | 1035.3 | 1031.7
x1 = 0.5407 | 2.31e-05 | 1.8e-05 | 1.44e-05 | 1.19e-05 | 1e-05 | 1034.6 | 1030.8 | 1027 | 1023.1 | 1019.5
x1 = 0.5909 | 1.81e-05 | 1.44e-05 | 1.15e-05 | 9.68e-06 | 8.16e-06 | 1022.5 | 1018.7 | 1015 | 1011.1 | 1007.4
x1 = 0.6384 | 1.4e-05 | 1.13e-05 | 9.35e-06 | 7.83e-06 | 6.79e-06 | 1010.7 | 1006.8 | 1003.1 | 999.3 | 995.4
x1 = 0.6834 | 1.06e-05 | 8.7e-06 | 7.27e-06 | 6.21e-06 | 5.45e-06 | 997.9 | 994 | 990 | 986.2 | 982.5
x1 = 0.7259 | 8.32e-06 | 6.95e-06 | 5.89e-06 | 5.07e-06 | 4.5e-06 | 986.3 | 982.6 | 978.9 | 975 | 971.2
x1 = 0.7663 | 6.39e-06 | 5.42e-06 | 4.66e-06 | 4.05e-06 | 3.65e-06 | 973.7 | 970.1 | 966 | 962.4 | 958.5
x1 = 0.8047 | 4.97e-06 | 4.27e-06 | 3.71e-06 | 3.28e-06 | 2.96e-06 | 961.5 | 957.5 | 953.3 | 949.5 | 945.9
x1 = 0.876 | 3.22e-06 | 2.84e-06 | 2.52e-06 | 2.26e-06 | 2.08e-06 | 938.1 | 934.4 | 930.4 | 926.6 | 922.9
x1 = 0.9408 | 2.23e-06 | 1.99e-06 | 1.8e-06 | 1.63e-06 | 1.52e-06 | 916.1 | 912.8 | 908.5 | 904.8 | 901.2
x1 = 1 | 1.56e-06 | 1.39e-06 | 1.27e-06 | 1.17e-06 | 1.08e-06 | 893.3 | 888.8 | 884.9 | 880 | 875.2
